For six compounds, GI50 results are on record in patent publication US11602534B2, “Pyrimidine derivative kinase inhibitors” (HEFEI INSTITUTES OF PHYSICAL SCIENCE, CHINESE ACADEMY OF …, priority 2017, dated 2023).

For one test, the system named is Tel-FLT3-BaF3. Kind of test: Proliferation of Tel-FLT3-BaF3 cells, CCK8 cell viability assay. Type of test: cell-based. To be noted: Mus musculus, 72 hours, stably expressing FLT3 kinase. In short, it runs like this: (§1)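 Human kinase-region sequences were PCR-amplified, fused behind N-terminal TEL in MSCV-Puro and stably introduced into mouse BaF3 by retrovirus. IL-3 was then removed to give kinase-dependent lines. Compound effects on these and on parental BaF3 are scored as GI50 (μM) via CCK8 viable-cell quantification.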

The next test has as its system Tel-cKit-BaF3. The experiment in a line: Proliferation of Tel-cKit-BaF3 cells, CCK8 cell viability assay. In kind it is cell-based, mouse. To be noted: Mus musculus; 72 hours, CCK8; stably expressing cKIT kinase. In short, it runs like this: (§2)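 Murine BaF3 cells made IL-3-independent by retroviral transduction of human kinase domains fused to N-terminal TEL or TPR fragments; parental BaF3 included. Living cells quantified by CCK8 (dehydrogenase activity) read-out, giving GI50 in μM.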
(Tetrazolium assays rely on reduction of a dye to a coloured formazan, in cell work by metabolically active cells.)

In the next test the test system is BaF3. The experiment in a line: Proliferation of BaF3 cells, CCK8 cell viability assay. Type of test: cell-based. The note with it: Mus musculus, 72 hours. In short, it runs like this:
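Parental murine BaF3 and IL-3-independent BaF3 transformants driven by TEL–cKIT, TEL–PDGFRα or TEL–PDGFRβ, with human kinase domains stably transduced by retrovirus. CCK8 dehydrogenase read-out gives GI50 (μM).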

A further test relates to Tel-RET-BaF3. Kind of test: Proliferation of Tel-RET-BaF3 cells, CCK8 cell viability assay. Type of test: cell-based. To be noted: Mus musculus, 72 hours, stably expressing RET kinase. From the text: In this example the following cells were used: […] (purchased from ATCC), mouse P210-BaF3 (stably expressing BCR-ABL mutant activated kinase), mouse P210/T315I-BaF3 (stably expressing BCR-ABL/T315I mutant activated kinase), mouse FLT3-ITD-BaF3 (stably expressing FLT3/ITD mutant activated kinase), mouse TEL-FLT3-BaF3 (stably expressing FLT3 kinase), mouse TEL-cKIT-BaF3 (stably expressing cKIT kinase), mouse BaF3-tel/T670I-cKit (stably expressing cKIT/T670I mutant activated kinase), mouse Tel-VEGFR2-BaF3 (stably expressing VEGFR2 kinase), mouse Tel-PDGFRα-BaF3 (stably expressing PDGFRα kinase), mouse Tel-PDGFRβ-BaF3 (stably expressing PDGFRβ kinase), mouse Tel-RET-BaF3 (stably expressing RET kinase). The above cell lines were all constructed by our laboratory according to the following method: the kinase region sequences of human P210, P210/T315I, FLT3/ITD, FLT3, cKIT, cKIT/T670I, VEGFR2, PDGFRα, PDGFRβ, RET were respectively amplified by PCR, and inserted into MSCV-Puro vectors having N-terminal TEL or TPR fragments (Clontech). The vectors were stably transfected into mouse BaF3 cells by means of retrovirus, and the growth factor IL-3 were removed, eventually obtaining cell lines that depend on transferred protein P210, P210/T315I, FLT3/ITD, FLT3, cKIT, cKIT/T670I, VEGFR2, PDGFRα, PDGFRβ, or RET.
GI50 (unit: μM) was calculated by quantifying the number of living cells based on quantitative measurement of reductive dehydrogenase in living cells with CCK8 cell viability assay kit (Bestbio, China).

In a further test the test system is FLT3-ITD-BaF3. The experiment in a line: Proliferation of FLT3-ITD-BaF3 cells, CCK8 cell viability assay. To be noted: Mus musculus, 72 hours, stably expressing FLT3/ITD. Type of test: cell-based. In short, it runs like this:
as §1

The test system of a further test is TEL-VEGFR2-BaF3. Kind of test: Proliferation of TEL-VEGFR2-BaF3 cells, CCK8 cell viability assay. In kind it is cell-based. To be noted: Mus musculus, 72 hours, stably expressing VEGFR2 kinase. In short, it runs like this: as §1
For a further test, the system named is TEL-PDGFRα-BaF3. The experiment in a line: Proliferation of TEL-PDGFRα-BaF3 cells, CCK8 cell viability assay. Type of test: cell-based. To be noted: Mus musculus, 72 hours, stably expressing PDGFRα kinase. In short, it runs like this: as §2
Another test relates to TEL-PDGFRβ-BaF3. The experiment in a line: Proliferation of TEL-PDGFRβ-BaF3 cells, CCK8 cell viability assay. To be noted: Mus musculus, 72 hours, stably expressing PDGFRβ kinase. In kind it is cell-based. In short, it runs like this: as §2
The next test concerns Tel-cKit/T670I-BaF3. Kind of test: Proliferation of Tel-cKit/T670I-BaF3 cells, CCK8 cell viability assay. In kind it is cell-based. To be noted: Mus musculus, 72 hours, stably expressing cKIT/T670I. A digest of the protocol: as §2
Another test relates to P210-BaF3. The experiment in a line: Proliferation of P210-BaF3 cells, CCK8 cell viability assay. Type of test: cell-based. To be noted: Mus musculus, 72 hours, stably expressing BCR-ABL mutant activated kinase. A digest of the protocol:
as §1

The next test has as its system P210/T315I-BaF3. The experiment in a line: Proliferation of P210/T315I-BaF3 cells, CCK8 cell viability assay. The note with it: Mus musculus, 72 hours, stably expressing BCR-ABL/T315I. In kind it is cell-based. In short, it runs like this:
as §1

Take `CC(=O)Nc1cc(Oc2ccc(NC(=O)Cc3ccccc3I)cc2)ncn1` [Example 4, N-[4-(6-acetylamino-pyrimidin-4-yloxy)-phenyl]-2-(2-iodo-phenyl)-acetamide]: the GI50 in the test with Tel-FLT3-BaF3 was 667 nM; with Tel-cKit-BaF3, above 10000 nM; in the test with BaF3 it was above 10000 nM; in the test with Tel-RET-BaF3, above 10000 nM; with FLT3-ITD-BaF3, 61 nM; in the test with TEL-VEGFR2-BaF3, 734 nM. Further, the GI50 with TEL-PDGFRα-BaF3 was 13 nM; in the test with TEL-PDGFRβ-BaF3, 48 nM; in the test on Tel-cKit/T670I-BaF3, above 10000 nM; in the test with P210-BaF3, above 10000 nM.
Regarding `CC(=O)Nc1cc(Oc2ccc(NC(=O)Cc3c(Cl)cccc3Cl)cc2)ncn1` [Example 6, N-[4-(6-acetylamino-pyrimidin-4-yloxy)-phenyl]-2-(2,6-dichloro-phenyl)-acetamide], the GI50 was 663 nM in the test on Tel-FLT3-BaF3; above 10000 nM in the test on Tel-cKit-BaF3; above 10000 nM in the test with BaF3; above 10000 nM in the test on Tel-RET-BaF3; 63 nM with FLT3-ITD-BaF3; 1930 nM with TEL-VEGFR2-BaF3. The GI50 in the test on TEL-PDGFRα-BaF3 is 59 nM; with TEL-PDGFRβ-BaF3 it was 346 nM; in the test on Tel-cKit/T670I-BaF3 it was above 10000 nM; with P210-BaF3, above 10000 nM.
As to `CC(=O)Nc1cc(Oc2ccc(NC(=O)Cc3cc(C)ccc3C)cc2)ncn1` [Example 7, N-[4-(6-acetylamino-pyrimidin-4-yloxy)-phenyl]-2-(2,5-dimethyl-phenyl)-acetamide], the GI50 with Tel-FLT3-BaF3 was 236 nM; in the test on Tel-cKit-BaF3 it was 3210 nM; in the test on BaF3 it was above 10000 nM; with Tel-RET-BaF3, above 10000 nM; with FLT3-ITD-BaF3, 67 nM; in the test with TEL-VEGFR2-BaF3, 518 nM. Also, the GI50 in the test with TEL-PDGFRα-BaF3 is 35 nM; with TEL-PDGFRβ-BaF3 it was 70 nM; in the test on P210/T315I-BaF3 it was above 10000 nM; in the test with Tel-cKit/T670I-BaF3, above 10000 nM; in the test with P210-BaF3, above 10000 nM.
On to `CC(=O)Nc1cc(Oc2ccc(NC(=O)Cc3ccc(Cl)cc3Cl)cc2)ncn1` [Example 8, N-[4-(6-acetylamino-pyrimidin-4-yloxy)-phenyl]-2-(2,4-dichloro-phenyl)-acetamide], for which the GI50 with Tel-FLT3-BaF3 was 17 nM; in the test with Tel-cKit-BaF3 it was 524 nM; in the test on BaF3, above 10000 nM; in the test with Tel-RET-BaF3, above 10000 nM; in the test on FLT3-ITD-BaF3, 4 nM; in the test with TEL-VEGFR2-BaF3 it was 139 nM. Also, the GI50 in the test on TEL-PDGFRα-BaF3 was 1 nM; in the test with TEL-PDGFRβ-BaF3, 3 nM; with P210/T315I-BaF3 it was above 10000 nM; with Tel-cKit/T670I-BaF3, above 10000 nM; with P210-BaF3, 6740 nM.
With `COCCNc1cc(Oc2ccc(NC(=O)Nc3ccc(C(F)(F)F)cc3)cc2)ncn1` [Example 73, 1-{4-[6-(2-methoxy-ethylamino)-pyrimidin-4-yloxy]-phenyl}-3-(4-trifluoromethyl-phenyl)-urea], the GI50 in the test with Tel-FLT3-BaF3 is 1570 nM; with Tel-cKit-BaF3, 5680 nM; in the test with BaF3 it was above 10000 nM; in the test with Tel-RET-BaF3 it was above 10000 nM; in the test on FLT3-ITD-BaF3, 170 nM; in the test with TEL-PDGFRα-BaF3 it was 165 nM. The GI50 was 154 nM in the test on TEL-PDGFRβ-BaF3, above 10000 nM in the test on P210/T315I-BaF3, above 10000 nM in the test with Tel-cKit/T670I-BaF3 and above 10000 nM with P210-BaF3.
As to `COc1ccc(CNc2cc(Oc3ccc(NC(=O)Nc4ccc(CN5CCNCC5)c(C(F)(F)F)c4)cc3)ncn2)cc1` [Example 180, 1-{4-[6-(4-methoxy-benzylamino)-pyrimidin-4-yloxy]-phenyl}-3-(4-piperazin-1-ylmethyl-3-trifluoromethyl-phenyl)-urea], the GI50 with Tel-FLT3-BaF3 amounted to 22 nM; in the test on Tel-cKit-BaF3 it was 330 nM; in the test on BaF3, 9010 nM; in the test with Tel-RET-BaF3 it was 331 nM; with FLT3-ITD-BaF3 it was 3 nM; in the test on TEL-VEGFR2-BaF3, 39 nM. The GI50 was 112 nM in the test with TEL-PDGFRα-BaF3, 315 nM in the test on TEL-PDGFRβ-BaF3, 1720 nM in the test with P210/T315I-BaF3 and 2850 nM in the test with Tel-cKit/T670I-BaF3.

As usually defined, the GI50 is the concentration that inhibits growth by half. A lower GI50 goes with more potent growth inhibition.
